In brackets after ≈: the same amount, converted by molar mass. Read-outs that look alike come from different tables or passages of the source.
What was measured:
Format in all cases: cell-based
Escherichia coli (−ve) [1] = assay: Disc diffusion, inhibition zone and activity index vs chloramphenicol; design: activity index (%): concentration or dose not given beside the values; details: for inhibition zone (IZ): disc diffusion; for activity index (%): IZ of test compound/IZ of standard chloramphenicol ×100
Procedure: (§1) The in vitro antibacterial and antifungal activity of the components was assessed using a series of bacteria (Pseudomonas aeruginosa (−ve), Staphylococcus aureus (+ve), Escherichia coli (−ve), and Bacillus cereus (+ve)) and fungi (Trichophyton rubrum, Aspergillus flavus, and Candida albicans). The disc diffusion method was used to perform the in vitro antimicrobial activity tests. The biological activity of each compound was determined by examining its impact on the size of the inhibition zone, which is a measure of the compound's effectiveness in inhibiting the growth of microorganisms. The inhibitory zone (IZ) surrounding the disc was measured in millimeters. The activity of the current compounds was compared to that of the standard antibiotic chloramphenicol, and the % Activity Index (%=IZ of test compound/IZ of Standard)×100, was evaluated.

[2] = tested on: Pseudomonas aeruginosa (−ve); assay: as above; design: activity index (%): concentration or dose not given beside the values; details: for inhibition zone (IZ): disc diffusion; for activity index (%): IZ of test compound/IZ of standard chloramphenicol ×100
Procedure: as §1

Aspergillus flavus [3] = assay: as above; details: for activity index (%): IZ of test compound/IZ of standard ×100; for inhibition zone (IZ): disc diffusion
Procedure: as §1

Bacillus cereus (+ve) [4] = assay: as above; details: for activity index (%): IZ of test compound/IZ of standard chloramphenicol ×100; for inhibition zone (IZ): disc diffusion
Procedure: as §1

Candida albicans [5] = assay: as above; details: for activity index (%): IZ of test compound/IZ of standard ×100; for inhibition zone (IZ): disc diffusion
Procedure: as §1

[6] = tested on: Staphylococcus aureus (+ve); assay: as above; details: for activity index (%): IZ of test compound/IZ of standard chloramphenicol ×100; for inhibition zone (IZ): disc diffusion
Procedure: as §1

Trichophyton rubrum [7] = assay: as above; details: for activity index (%): IZ of test compound/IZ of standard ×100; for inhibition zone (IZ): disc diffusion
Procedure: as §1

Aspergillus flavus [8] = assay: MIC by repeated dilution
From the text: (§2) The MIC, or the lowest concentration of a drug that can inhibit the development of bacteria or fungi, is often used as a starting point in larger preclinical studies of new antibacterial medications. The MIC value was obtained by repeatedly diluting a sample until the desired concentration was reached.

Bacillus cereus (+ve) [9] = assay: MIC by repeated dilution
From the text: as §2

Candida albicans [10] = assay: MIC by repeated dilution
From the text: as §2

Escherichia coli (−ve) [11] = assay: MIC by repeated dilution
From the text: as §2

[12] = tested on: Pseudomonas aeruginosa (−ve); assay: MIC by repeated dilution
From the text: as §2

[13] = tested on: Staphylococcus aureus (+ve); assay: MIC by repeated dilution
From the text: as §2

Trichophyton rubrum [14] = assay: MIC by repeated dilution
From the text: as §2

bacteria or fungi = assay: MIC by repeated dilution, summary over the tested bacteria and fungi
From the text: as §2

Row | SMILES | inhibition zone (IZ) (Escherichia coli (−ve) [1]) | inhibition zone (IZ) [2] | activity index (%) (Aspergillus flavus [3]) | inhibition zone (IZ) (Aspergillus flavus [3]) | activity index (%) (Bacillus cereus (+ve) [4]) | inhibition zone (IZ) (Bacillus cereus (+ve) [4]) | activity index (%) (Candida albicans [5]) | inhibition zone (IZ) (Candida albicans [5]) | activity index (%) [6] | inhibition zone (IZ) [6] | activity index (%) (Trichophyton rubrum [7]) | inhibition zone (IZ) (Trichophyton rubrum [7]) | MIC (Aspergillus flavus [8]) | MIC (Bacillus cereus (+ve) [9]) | MIC (Candida albicans [10]) | MIC (Escherichia coli (−ve) [11]) | MIC [12] | MIC [13] | MIC (Trichophyton rubrum [14]) | activity index (%) (Escherichia coli (−ve) [1]) | further results
1 | O.O.O.c1ccc2c(c1)N=Nc1c(ccc3ccccc13)[O][Cu][O]2 [CuAZD] | 13 mm | 13 mm | 63.16% | 12 mm | 72.22% | 13 mm | 61.90% | 13 mm | 77.78% | 14 mm | 59.09% | 13 mm | 6.25 ppm | 6.25 ppm | 6.25 ppm | 3.125 ppm | 6.25 ppm | 6.25 ppm | 6.25 ppm |  | 
2 | O.O.[Cl][Fe]1[O]c2ccccc2N=Nc2c(ccc3ccccc23)[O]1 [FeAZD] | 12 mm | 11 mm | 52.63% | 10 mm | 66.67% | 12 mm | 57.14% | 12 mm | 72.22% | 13 mm | 50.00% | 11 mm | 6.25 ppm | 6.25 ppm | 6.25 ppm | 6.25 ppm | 12.5 ppm | 6.25 ppm | 6.25 ppm | 60.00% | activity index (%) [2]: 61.11%
3 | Oc1ccccc1N=Nc1c(O)ccc2ccccc12 [H2AZD, 1-(2-hydroxyphenylazo)-2-naphthol] | 8 mm | 8 mm | 42.11% | 8 mm | 44.44% | 8 mm | 38.10% | 8 mm | 50.00% | 9 mm | 31.82% | 7 mm |  |  |  |  |  |  |  | 40.00% | activity index (%) [2]: 44.44%; MIC (Aspergillus flavus [8]; read-out: MIC): 50 µg/mL (≈ 189 µM); MIC (Bacillus cereus (+ve) [9]; read-out: MIC): 50 µg/mL (≈ 189 µM); MIC (Candida albicans [10]; read-out: MIC): 50 µg/mL (≈ 189 µM); MIC (Escherichia coli (−ve) [11]; read-out: MIC): 50 µg/mL (≈ 189 µM); MIC ([12]; read-out: MIC): 50 µg/mL (≈ 189 µM); MIC ([13]; read-out: MIC): 50 µg/mL (≈ 189 µM); MIC (Trichophyton rubrum [14]; read-out: MIC): 50 µg/mL (≈ 189 µM); MIC (bacteria or fungi): ~50 µg/mL (≈ 189 µM)
4 | O.c1ccc2c(c1)N=Nc1c(ccc3ccccc13)[O][Ni][O]2 [NiAZD] | 11 mm | 11 mm | 52.63% | 10 mm | 61.11% | 11 mm | 52.38% | 11 mm | 72.22% | 13 mm | 45.45% | 10 mm | 6.25 ppm | 6.25 ppm | 6.25 ppm | 6.25 ppm | 12.5 ppm | 6.25 ppm | 6.25 ppm | 55.00% | activity index (%) [2]: 61.11%

— patent US20250051383A1, “NOVEL FEAZD, NIAZD, AND CUAZD COMPLEXES INCORPORATING 1-(2-HYDROXYPHENYLAZO)-2-NAPHTHOL (H2AZD) FOR BIOLOGICAL APPLICATIONS” (KING FAISAL UNIVERSITY, priority 2023, published 2025)
